Test results from patent US10889565B2, “4-hydroxy-3-sulfonylpyridin-2(1H)-ones as APJ receptor agonists” (BRISTOL-MYERS SQUIBB COMPANY, priority 2016, dated 2021).

molecular target: T1, human APJ receptor (Homo sapiens, UniProt P35414); assay: Intracellular cAMP accumulation assay (APJ hcAMP, HTRF); format: cell-based; conditions: HEK293 cells stably expressing human APJ receptor; inhibition of forskolin-mediated cAMP production; read-out: Human APJ cAMP EC50 Potency range
T1 construct: expressed in transfected cells
T1 sequence (P35414 1-380): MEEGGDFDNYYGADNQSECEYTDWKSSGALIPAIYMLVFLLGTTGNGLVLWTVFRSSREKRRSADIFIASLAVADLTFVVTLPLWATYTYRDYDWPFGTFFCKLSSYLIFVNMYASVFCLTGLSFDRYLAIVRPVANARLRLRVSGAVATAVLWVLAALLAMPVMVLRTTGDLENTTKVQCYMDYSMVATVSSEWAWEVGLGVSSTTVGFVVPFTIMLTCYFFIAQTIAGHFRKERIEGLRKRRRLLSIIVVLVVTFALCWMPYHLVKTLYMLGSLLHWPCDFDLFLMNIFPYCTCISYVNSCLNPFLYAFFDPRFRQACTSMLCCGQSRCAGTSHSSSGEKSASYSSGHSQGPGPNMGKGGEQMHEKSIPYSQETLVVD
Method: Intracellular cAMP Accumulation Assay
HEK293 cells stably expressing human APJ receptor were used to assess the activity of compounds. Cultured cells were detached and resuspended in the cAMP Homogeneous Time-Resolved Fluorescence (HTRF) assay buffer (Cisbio cat; #62AM4PEJ). The assay was performed in 384-well assay plates (Perkin-Elmer; cat #6008289) according to assay protocol provided by the manufacturer. Serial dilutions of a compound together with assay buffer containing […] IBMX and 2 μM forskolin were added to each well containing 5,000 cells and incubated for 30 minutes at room temperature. Subsequently, cAMP D2 reagent was added in the lysis buffer followed by the EuK antibody (Cisbio; cat #62AM4PEJ) and incubated for 60 min. The fluorescence emission ratio was measured using fluorometer. The intracellular cAMP concentrations (compound-stimulated inhibition of forskolin-mediated cAMP production) were calculated by extrapolation from a standard curve using known cAMP concentrations. The EC50 values were obtained by fitting the data to a sigmoidal concentration-response curve with variable slope. The maximal achievable inhibition of forskolin-induced cAMP levels (Ymax) for each compound was expressed as relative percentage of inhibition attained using pyroglutamated apelin-13 ((Pyr1)apelin-13) peptide, which was set to 100%.
The examples disclosed below were tested in the APJ in vitro assays described above and were found having human APJ cyclic AMP (hcAMP) activity. The EC50 value of each compound is presented at the end of the example description.
The biological activity of the exemplified compounds of this invention determined by the assay described above is shown at the end of each example.

EC50, 0.01 to 10 nM:
CCCCc1[nH]c(=O)c(S(=O)(=O)c2ccc(-c3ccnc(OC)c3)cn2)c(O)c1-c1c(OC)cccc1OC [Example 44, 6-butyl-5-(2,6-dimethoxy-phenyl)-4-hydroxy-3-((2′-methoxy-[3,4′-bipyridin]-6-yl)sulfonyl) pyridin-2(1H)-one]
CCCCc1[nH]c(=O)c(S(=O)(=O)c2ccc(-c3cccc(F)c3C)cn2)c(O)c1-c1c(OC)cccc1OC [Example 38, 6-butyl-5-(2,6-dimethoxy-phenyl)-3-((5-(3-fluoro-2-methylphenyl)pyridin-2-yl)sulfonyl)-4-hydroxy-pyridin-2(1H)-one]
CCCCc1[nH]c(=O)c(S(=O)(=O)c2ccc(-c3ccc(F)cc3)cn2)c(O)c1-c1c(OC)cccc1OC [Example 43, 6-butyl-5-(2,6-dimethoxy-phenyl)-3-((5-(4-fluorophenyl)pyridin-2-yl)sulfonyl)-4-hydroxypyridin-2(1H)-one]
CCCCc1[nH]c(=O)c(S(=O)(=O)c2ccc(-c3ccc(F)nc3)cc2)c(O)c1-c1c(OC)cccc1OC [Example 6, 6-butyl-5-(2,6-dimethoxy-phenyl)-3-((4-(6-fluoro-pyridin-3-yl)phenyl)sulfonyl)-4-hydroxy-pyridin-2(1H)-one]
CCCCc1[nH]c(=O)c(S(=O)(=O)c2ccc(-c3ccncc3C)cc2)c(O)c1-c1c(OC)cccc1OC [Example 3, 6-butyl-5-(2,6-dimethoxy-phenyl)-4-hydroxy-3-((4-(3-methyl-pyridin-4-yl)phenyl)sulfonyl) pyridin-2(1H)-one]
CCCCc1[nH]c(=O)c(S(=O)(=O)c2ccc(-n3cc(Cl)ccc3=O)cc2)c(O)c1-c1c(OC)cccc1OC [Example 19, 6-Butyl-3-((4-(5-chloro-2-oxopyridin-1 (2H)-yl)phenyl)sulfonyl)-5-(2,6-dimethoxyphenyl)-4-hydroxypyridin-2(1H)-one]
CCCCc1[nH]c(=O)c(S(=O)(=O)c2ccc(-c3ccc(F)nc3)cn2)c(O)c1-c1c(OC)cccc1OC [Example 42, 6-butyl-5-(2,6-dimethoxy-phenyl)-3-((6′-fluoro-[3,3′-bipyridin]-6-yl)sulfonyl)-4-hydroxypyridin-2(1H)-one]
CCCCc1[nH]c(=O)c(S(=O)(=O)c2ccc(Nc3ccc(F)nc3)cc2)c(O)c1-c1c(OC)cccc1OC [Example 28, 6-butyl-5-(2,6-dimethoxyphenyl)-3-((4-((6-fluoropyridin-3-yl)amino)phenyl)sulfonyl)-4-hydroxypyridin-2(1H)-one]
CCOCc1[nH]c(=O)c(S(=O)(=O)c2ccc(-c3ccc(F)cc3)cc2)c(O)c1-c1c(OC)cccc1OC [Example 9, 5-(2,6-dimethoxy-phenyl)-6-(ethoxymethyl)-3-((4′-fluoro-[1,1′-biphenyl]-4-yl)sulfonyl)-4-hydroxypyridin-2(1H)-one]
CCCCc1[nH]c(=O)c(S(=O)(=O)c2ccccn2)c(O)c1-c1c(OC)cccc1OC [Example 46, 6-butyl-5-(2,6-dimethoxy-phenyl)-4-hydroxy-3-(pyridin-2-ylsulfonyl) pyridin-2(1H)-one]
CCOCc1[nH]c(=O)c(S(=O)(=O)c2ccc(-c3ccc(F)nc3)cc2)c(O)c1-c1c(OC)cccc1OC [Example 12, 5-(2,6-dimethoxy-phenyl)-6-(ethoxymethyl)-3-((4-(6-fluoro-pyridin-3-yl)phenyl)sulfonyl)-4-hydroxy-pyridin-2(1H)-one]
COc1cccc(OC)c1-c1c(-c2ccc(F)cc2)[nH]c(=O)c(S(=O)(=O)c2ccc(-c3ccnc(F)c3C)cc2)c1O [Example 16, 5-(2,6-dimethoxy-phenyl)-3-((4-(2-fluoro-3-methyl-pyridin-4-yl)phenyl)sulfonyl)-6-(4-fluoro-phenyl)-4-hydroxy-pyridin-2(1H)-one]
CCCCc1[nH]c(=O)c(S(=O)(=O)c2ccc(-n3ccccc3=O)cc2)c(O)c1-c1c(OC)cccc1OC [Example 22, 6-butyl-5-(2,6-dimethoxy-phenyl)-4-hydroxy-3-((4-(2-oxopyridin-1(2H)-yl)phenyl)sulfonyl) pyridin-2(1H)-one]
CCCCc1[nH]c(=O)c(S(=O)(=O)c2ccc(-c3ccc(F)nc3C)cc2)c(O)c1-c1c(OC)cccc1OC [Example 5, 6-butyl-5-(2,6-dimethoxy-phenyl)-3-((4-(6-fluoro-2-methyl-pyridin-3-yl)phenyl)sulfonyl)-4-hydroxy-pyridin-2(1H)-one]
CCOCc1[nH]c(=O)c(S(=O)(=O)c2ccc(-n3cc(Cl)ccc3=O)cc2)c(O)c1-c1c(OC)cccc1OC [Example 21, 3-((4-(5-chloro-2-oxopyridin-1(2H)-yl)phenyl)sulfonyl)-5-(2,6-dimethoxy-phenyl)-6-(ethoxymethyl)-4-hydroxy-pyridin-2(1H)-one]
COc1cccc(OC)c1-c1c(-c2ccc(F)cc2)[nH]c(=O)c(S(=O)(=O)c2ccc(-c3ccc(F)nc3C)cc2)c1O [Example 17, 5-(2,6-dimethoxy-phenyl)-3-((4-(6-fluoro-2-methyl-pyridin-3-yl)phenyl)sulfonyl)-6-(4-fluoro-phenyl)-4-hydroxy-pyridin-2(1H)-one]
CCCCc1[nH]c(=O)c(S(=O)(=O)c2ccc(-c3cccnc3OC)cc2)c(O)c1-c1c(OC)cccc1OC [Example 2, 6-butyl-5-(2,6-dimethoxy-phenyl)-4-hydroxy-3-((4-(2-methoxy-pyridin-3-yl)phenyl)sulfonyl) pyridin-2(1H)-one]
CCOCc1[nH]c(=O)c(S(=O)(=O)c2ccc(-n3ccccc3=O)cc2)c(O)c1-c1c(OC)cccc1OC [Example 26, 5-(2,6-dimethoxy-phenyl)-6-(ethoxymethyl)-4-hydroxy-3-((4-(2-oxopyridin-1(2H)-yl)phenyl)sulfonyl) pyridin-2(1H)-one]
COc1cccc(OC)c1-c1c(-c2ccc(F)cc2)[nH]c(=O)c(S(=O)(=O)c2ccc(-n3cc(Cl)ccc3=O)cc2)c1O [Example 23, 3-((4-(5-chloro-2-oxopyridin-1(2H)-yl)phenyl)sulfonyl)-5-(2,6-dimethoxy-phenyl)-6-(4-fluorophenyl)-4-hydroxy-pyridin-2(1H)-one]
CCCCc1[nH]c(=O)c(S(=O)(=O)c2ccc(C)cn2)c(O)c1-c1c(OC)cccc1OC [Example 39, 6-butyl-5-(2,6-dimethoxy-phenyl)-4-hydroxy-3-((5-methyl-pyridin-2-yl)sulfonyl) pyridin-2(1H)-one]
CCCCc1[nH]c(=O)c(S(=O)(=O)c2ccc(-c3ccnc(N4CCOCC4)c3F)cn2)c(O)c1-c1c(OC)cccc1OC [Example 40, 6-butyl-5-(2,6-dimethoxy-phenyl)-3-((3′-fluoro-2′-morpholino-[3,4′-bipyridin]-6-yl)sulfonyl)-4-hydroxypyridin-2(1H)-one]
CCCCc1[nH]c(=O)c(S(=O)(=O)c2ccc(C3CC3)cn2)c(O)c1-c1c(OC)cccc1OC [Example 51, 6-Butyl-3-((5-cyclopropylpyridin-2-yl)sulfonyl)-5-(2,6-dimethoxyphenyl)-4-hydroxypyridin-2(1H)-one]
CCCCc1[nH]c(=O)c(S(=O)(=O)c2ccc(-n3cc(C)ccc3=O)cc2)c(O)c1-c1c(OC)cccc1OC [Example 20, 6-butyl-5-(2,6-dimethoxy-phenyl)-4-hydroxy-3-((4-(5-methyl-2-oxopyridin-1(2H)-yl)phenyl)sulfonyl) pyridin-2(1H)-one]
